PubChem BioAssay AID330 (DTP/NCI, 2004)
Where “and” joins values, the source holds several entries; their conditions need not be identical. Equal values may be shown once. Toxic doses and inconclusive results are not listed.

Tested on: P388 leukemia ip, CD2F1 mice, survival T/C
Assay: NCI In Vivo Anticancer Drug Screen. Data for tumor model P388 Leukemia (intraperitoneal) in CD2F1 (CDF1) mice
Details: endpoint: median survival time, higher = longer survival
Method in brief: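 Mice carrying the transplanted tumor received test compound or vehicle. Survival was recorded in each group, and the value is the treated-group measurement divided by that of the vehicle-treated control group.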

[1] = dose: 60.0 mg/kg/injection, schedule: Q01DX005 (ip), vehicle: saline with Tween-80
[2] = dose: 120.0 mg/kg/injection, schedule: Q01DX005 (ip), vehicle: saline with Tween-80
[3] = dose: 240.0 mg/kg/injection, schedule: Q01DX005 (ip), vehicle: saline with Tween-80
[4] = dose: 50.0 mg/kg/injection, schedule: Q01DX005 (ip), vehicle: saline
[5] = dose: 100.0 mg/kg/injection, schedule: Q01DX005 (ip), vehicle: saline
[6] = dose: 200.0 mg/kg/injection, schedule: Q01DX005 (ip), vehicle: saline
[7] = dose: 50.0 mg/kg/injection, schedule: Q01DX009 (ip), vehicle: saline with Tween-80
[8] = dose: 50.0 mg/kg/injection, schedule: Q01DX005 (ip), vehicle: Klucel (hydroxypropylcellulose) (HPC)
[9] = dose: 100.0 mg/kg/injection, schedule: Q01DX005 (ip), vehicle: Klucel (hydroxypropylcellulose) (HPC)
[10] = dose: 200.0 mg/kg/injection, schedule: Q01DX005 (ip), vehicle: Klucel (hydroxypropylcellulose) (HPC)
[11] = dose: 50.0 mg/kg/injection, schedule: Q01DX009 (ip), vehicle: Klucel (hydroxypropylcellulose) (HPC)
[12] = dose: 100.0 mg/kg/injection, schedule: Q01DX009 (ip), vehicle: Klucel (hydroxypropylcellulose) (HPC)
[13] = dose: 200.0 mg/kg/injection, schedule: Q01DX009 (ip), vehicle: Klucel (hydroxypropylcellulose) (HPC)

Structure (SMILES): O=C(NC1(N2CCOCC2)CC1)c1ccc(Cl)cc1
- T/C (dose: 60.0 mg/kg/injection, schedule: Q01DX005 (ip), vehicle: Klucel (hydroxypropylcellulose) (HPC)): 88 % of control
- T/C (dose: 120.0 mg/kg/injection, schedule: Q01DX005 (ip), vehicle: Klucel (hydroxypropylcellulose) (HPC)): 103 % of control
- T/C (dose: 240.0 mg/kg/injection, schedule: Q01DX005 (ip), vehicle: Klucel (hydroxypropylcellulose) (HPC)): 103 % of control

Structure (SMILES): O=c1[nH]cnc2cc3c(cc12)nc1n3CCOC1
- T/C (dose: 100.0 mg/kg/injection, schedule: Q04DX003 (ip), vehicle: saline): 109 % of control
- T/C (dose: 200.0 mg/kg/injection, schedule: Q04DX003 (ip), vehicle: saline): 105 % of control

Structure (SMILES): O=c1[nH]cc(N(CCCl)CCCl)c(=O)[nH]1
- T/C (dose: 0.05 mg/kg/injection, schedule: Q01DX009 (ip), vehicle: saline with Tween-80): 109 % of control
- T/C (dose: 0.08 mg/kg/injection, schedule: Q01DX009 (ip), vehicle: saline with Tween-80): 109 % of control
- T/C (dose: 0.39 mg/kg/injection, schedule: Q01DX009 (ip), vehicle: saline with Tween-80): 181 % of control
- T/C (dose: 0.65 mg/kg/injection, schedule: Q01DX009 (ip), vehicle: saline with Tween-80): 181 % of control
- T/C (dose: 1.1 mg/kg/injection, schedule: Q01DX009 (ip), vehicle: saline with Tween-80): 236 % of control
- T/C (dose: 1.8 mg/kg/injection, schedule: Q01DX009 (ip), vehicle: saline with Tween-80): 227 % of control
- T/C (dose: 3.0 mg/kg/injection, schedule: Q01DX009 (ip), vehicle: saline with Tween-80): 118 % of control

Structure (SMILES): N#Cc1c(-c2ccccc2)cn2c1[nH]c(=O)c1ccccc12
- T/C [1]: 111 % of control
- T/C [2]: 107 % of control
- T/C [3]: 101 % of control

Structure (SMILES): COc1cc(CCNC(C)=O)cc(OC)c1OC
- T/C (dose: 25.0 mg/kg/injection, schedule: Q01DX005 (ip), vehicle: water): 100 % of control
- T/C (dose: 50.0 mg/kg/injection, schedule: Q01DX005 (ip), vehicle: water): 104 % of control
- T/C (dose: 100.0 mg/kg/injection, schedule: Q01DX005 (ip), vehicle: water): 100 % of control
- T/C (dose: 200.0 mg/kg/injection, schedule: Q01DX005 (ip), vehicle: water): 91 % of control

Structure (SMILES): Cc1cc(NS(=O)(=O)c2ccc(N)cc2)no1
- T/C (dose: 25.0 mg/kg/injection, schedule: Q01DX005 (ip), vehicle: saline): 106 % of control
- T/C [4]: 103 % of control
- T/C [5]: 114 % of control
- T/C [6]: 101 % of control
- T/C (dose: 400.0 mg/kg/injection, schedule: Q01DX005 (ip), vehicle: saline): 97 % of control

Structure (SMILES): CS(=N)(=O)c1ccccc1N (stereo not given)
- T/C (dose: 100.0 mg/kg/injection, schedule: Q04DX003 (ip), vehicle: saline with Tween-80): 98 % of control
- T/C (dose: 200.0 mg/kg/injection, schedule: Q04DX003 (ip), vehicle: saline with Tween-80): 99 % of control
- T/C (dose: 400.0 mg/kg/injection, schedule: Q04DX003 (ip), vehicle: saline with Tween-80): 103 % of control

Structure (SMILES): ON=C(C(Cl)(Cl)Cl)C(Cl)(Cl)Cl
- T/C [1]: 100 % of control
- T/C [2]: 100 % of control
- T/C [3]: 97 % of control

Structure (SMILES): CCCCCCCCCCCC(=O)OCCN1CCN(CCCN2c3ccccc3Sc3ccc(C(F)(F)F)cc32)CC1
- T/C (dose: 0.78 mg/kg/injection, schedule: Q01DX009 (ip), vehicle: saline with Tween-80): 108 % of control
- T/C (dose: 1.56 mg/kg/injection, schedule: Q01DX009 (ip), vehicle: saline with Tween-80): 104 % of control
- T/C (dose: 3.12 mg/kg/injection, schedule: Q01DX009 (ip), vehicle: saline with Tween-80): 105 % of control and 93 % of control
- T/C (dose: 6.25 mg/kg/injection, schedule: Q01DX009 (ip), vehicle: saline with Tween-80): 107 % of control
- T/C (dose: 12.5 mg/kg/injection, schedule: Q01DX009 (ip), vehicle: saline with Tween-80): 101 % of control and 107 % of control
- T/C (dose: 25.0 mg/kg/injection, schedule: Q01DX009 (ip), vehicle: saline with Tween-80): 106 % of control
- T/C [7]: 114 % of control
- T/C (dose: 100.0 mg/kg/injection, schedule: Q01DX009 (ip), vehicle: saline with Tween-80): 97 % of control

Structure (SMILES): O=C(O)CN(CCN(CC(=O)O)CC(=O)O)CC(=O)O.[Cl][Pd][Cl]
- T/C (dose: 15.0 mg/kg/injection, schedule: Q01DX005 (ip), vehicle: saline): 97 % of control
- T/C (dose: 30.0 mg/kg/injection, schedule: Q01DX005 (ip), vehicle: saline): 93 % of control
- T/C (dose: 60.0 mg/kg/injection, schedule: Q01DX005 (ip), vehicle: saline): 91 % of control and 95 % of control

Structure (SMILES): CC(C)c1ccc(/C(O)=C/C(=O)C(=O)/C=C(/O)c2ccc(C(C)C)cc2)cc1
- T/C (dose: 100.0 mg/kg/injection, schedule: Q04DX002 (ip), vehicle: saline): 100 % of control
- T/C (dose: 200.0 mg/kg/injection, schedule: Q04DX002 (ip), vehicle: saline): 100 % of control
- T/C (dose: 400.0 mg/kg/injection, schedule: Q04DX002 (ip), vehicle: saline): 99 % of control

Structure (SMILES): N#Cc1cc2ccccc2n(Cc2ccccc2)c1=O
- T/C [8]: 101 % of control
- T/C [9]: 109 % of control
- T/C [10]: 100 % of control

Structure (SMILES): CCOC(=O)c1sc(SC)c2c(N)nc(C)nc12
- T/C (dose: 50.0 mg/kg/injection, schedule: Q01DX005 (ip), vehicle: saline with Tween-80): 98 % of control
- T/C (dose: 100.0 mg/kg/injection, schedule: Q01DX005 (ip), vehicle: saline with Tween-80): 94 % of control
- T/C (dose: 200.0 mg/kg/injection, schedule: Q01DX005 (ip), vehicle: saline with Tween-80): 95 % of control

Structure (SMILES): COc1cc(O)c(C/C=C/c2ccccc2)cc1O
- T/C (dose: 2.5 mg/kg/injection, schedule: Q01DX009 (ip), vehicle: saline with Tween-80): 102 % of control
- T/C (dose: 5.0 mg/kg/injection, schedule: Q01DX009 (ip), vehicle: saline with Tween-80): 105 % of control
- T/C (dose: 10.0 mg/kg/injection, schedule: Q01DX009 (ip), vehicle: saline with Tween-80): 103 % of control

Structure (SMILES): CC1(C)CC(NC2CCCCC2)=CC(=NC2CCCCC2)N1
- T/C (dose: 6.25 mg/kg/injection, schedule: Q01DX005 (ip), vehicle: Klucel (hydroxypropylcellulose) (HPC)): 100 % of control
- T/C (dose: 12.5 mg/kg/injection, schedule: Q01DX005 (ip), vehicle: Klucel (hydroxypropylcellulose) (HPC)): 105 % of control
- T/C (dose: 25.0 mg/kg/injection, schedule: Q01DX005 (ip), vehicle: Klucel (hydroxypropylcellulose) (HPC)): 99 % of control and 101 % of control
- T/C [8]: 100 % of control

Structure (SMILES): O=S(=O)(O)C(O)c1ccc(Cl)cc1Cl (stereo not given)
- T/C (dose: 50.0 mg/kg/injection, schedule: Q01DX001 (ip), vehicle: Klucel (hydroxypropylcellulose) (HPC)): 100 % of control
- T/C (dose: 100.0 mg/kg/injection, schedule: Q01DX001 (ip), vehicle: Klucel (hydroxypropylcellulose) (HPC)): 100 % of control
- T/C (dose: 200.0 mg/kg/injection, schedule: Q01DX001 (ip), vehicle: Klucel (hydroxypropylcellulose) (HPC)): 116 % of control

Structure (SMILES): COc1ccccc1C(Nc1ccc([N+](=O)[O-])cc1)P(=O)(Oc1ccccc1)Oc1ccccc1 (stereo not given)
- T/C [8]: 95 % of control
- T/C [9]: 106 % of control
- T/C [10]: 95 % of control

Structure (SMILES): CNC(=O)OC(C)C1CCCCC1OC(=O)NC (stereo not given)
- T/C [4]: 100 % of control
- T/C [5]: 106 % of control
- T/C [6]: 100 % of control

Structure (SMILES): COC(=O)C1=C(C(=O)OC)C23C(=O)c4ccc(OC)c(OC)c4C1(OC)N2CCc1cc2c(cc13)OCO2 (stereo not given)
- T/C (dose: 50.0 mg/kg/injection, schedule: Q04DX002 (ip), vehicle: saline with Tween-80): 96 % of control
- T/C (dose: 100.0 mg/kg/injection, schedule: Q04DX002 (ip), vehicle: saline with Tween-80): 96 % of control
- T/C (dose: 200.0 mg/kg/injection, schedule: Q04DX002 (ip), vehicle: saline with Tween-80): 100 % of control

Structure (SMILES): Clc1ccc2oc(N3CCOCC3)nc2c1
- T/C [1]: 103 % of control
- T/C [2]: 96 % of control
- T/C [3]: 87 % of control

Structure (SMILES): CSc1c(C(=O)NC(C)C)cc(C(C)(C)C)cc1C(=O)NC(C)C
- T/C [11]: 89 % of control
- T/C [12]: 86 % of control
- T/C [13]: 89 % of control

Structure (SMILES): C=CCc1ccc(C(=O)OCCCCCCCCCC)c(OC)c1
- T/C [11]: 103 % of control
- T/C [12]: 105 % of control
- T/C [13]: 105 % of control

Structure (SMILES): CCC1CN2CCc3cc(OC)c(OC)cc3C2CC1Cl (stereo not given)
- T/C (dose: 12.5 mg/kg/injection, schedule: Q01DX009 (ip), vehicle: saline): 90 % of control
- T/C (dose: 25.0 mg/kg/injection, schedule: Q01DX009 (ip), vehicle: saline): 90 % of control
- T/C [7]: 101 % of control
- T/C (dose: 50.0 mg/kg/injection, schedule: Q01DX009 (ip), vehicle: saline): 96 % of control

Structure (SMILES): Cc1cc(=O)n2[nH]c(-c3ccc(Cl)cc3)nc2n1
- T/C [11]: 106 % of control
- T/C [12]: 103 % of control
- T/C [13]: 100 % of control
